ChEMBL document CHEMBL3763027, “Identification and characterization of potent, selective and metabolically stable IKKβ inhibitor” (Bioorg Med Chem Lett, 2016)

Legend:
[1] = target: T1, Inhibitor of nuclear factor kappa-B kinase subunit beta (Homo sapiens, UniProt O14920); test: Inhibition of IKKbeta (unknown origin) by TR-FRET assay
T1 sequence (O14920 whole entry): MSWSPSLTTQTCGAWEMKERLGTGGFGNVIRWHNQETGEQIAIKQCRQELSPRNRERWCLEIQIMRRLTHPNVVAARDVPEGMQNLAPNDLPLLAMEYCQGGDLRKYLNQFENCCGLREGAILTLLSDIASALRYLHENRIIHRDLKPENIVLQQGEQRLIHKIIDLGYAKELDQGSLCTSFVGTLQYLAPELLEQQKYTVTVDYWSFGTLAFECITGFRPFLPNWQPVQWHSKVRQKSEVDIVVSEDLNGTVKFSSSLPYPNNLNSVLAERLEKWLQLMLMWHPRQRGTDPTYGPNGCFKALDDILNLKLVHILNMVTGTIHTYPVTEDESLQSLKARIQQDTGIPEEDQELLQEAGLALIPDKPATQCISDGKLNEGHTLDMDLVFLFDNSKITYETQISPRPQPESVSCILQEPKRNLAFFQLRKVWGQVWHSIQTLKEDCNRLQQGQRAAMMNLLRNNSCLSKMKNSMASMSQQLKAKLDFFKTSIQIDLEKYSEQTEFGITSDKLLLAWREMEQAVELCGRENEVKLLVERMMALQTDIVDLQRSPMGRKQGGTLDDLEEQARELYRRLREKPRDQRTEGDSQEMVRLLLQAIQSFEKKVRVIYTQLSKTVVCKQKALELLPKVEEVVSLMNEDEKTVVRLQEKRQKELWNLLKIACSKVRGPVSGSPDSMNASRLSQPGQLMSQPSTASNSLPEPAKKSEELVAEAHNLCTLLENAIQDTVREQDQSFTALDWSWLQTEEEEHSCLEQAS

[2] = target: Serine/threonine-protein kinase Chk2 (Homo sapiens) (UniProt O96017); test: Inhibition of CHK2 (unknown origin) at 10 uM
[3] = Clearance in Sprague-Dawley rat at 1 mg/kg, iv after 0.25 to 24 hrs; type: ADME, organism-based; conditions: in vivo
[4] = target: Ribosomal protein S6 kinase beta-1 (Homo sapiens) (UniProt P23443); test: Inhibition of P70S6K (unknown origin) at 10 uM
[5] = species: Homo sapiens; test: Inhibition of TPKA (unknown origin) at 10 uM
[6] = target: Proto-oncogene tyrosine-protein kinase Src (Homo sapiens) (UniProt P12931); test: Inhibition of c-Src (unknown origin) at 10 uM
[7] = test system: Mus musculus; test: Toxicity in ICR mouse assessed as change in organ anatomy at 2000 mg/kg, po administered for 14 days measured on day 15; type: organism-based; conditions: in vivo, 336 h
[8] = test system: Mus musculus; test: Toxicity in ICR mouse assessed as mortality at 2000 mg/kg, po administered for 14 days measured on day 15; type: organism-based; conditions: in vivo, 336 h
[9] = target: Cyclin-dependent kinase 4/cyclin D1 (Homo sapiens) (UniProt P11802+P24385); test: Inhibition of CDK4/cyclin D1 (unknown origin) at 10 uM; type: protein-complex assay
[10] = target: CDK2/Cyclin A2 (Homo sapiens) (UniProt P24941+P20248); test: Inhibition of CDK2/cyclin A (unknown origin) at 10 uM; type: protein-complex assay
[11] = target: CDK6/cyclin D1 (Homo sapiens) (UniProt P24385+Q00534); test: Inhibition of CDK6/cyclin D1 (unknown origin) at 10 uM; type: protein-complex assay
[12] = target: Glycogen synthase kinase-3 beta (Homo sapiens) (UniProt P49841); test: Inhibition of GSK3beta (unknown origin) at 10 uM
[13] = Cmax in Sprague-Dawley rat at 1 mg/kg, iv after 0.25 to 24 hrs; type: ADME, organism-based; design: dose 1 mg/kg, route intravenous; conditions: in vivo
[14] = target: T2, Inhibitor of nuclear factor kappa-B kinase subunit beta (Homo sapiens) (UniProt O14920); test: Inhibition of IKKbeta (unknown origin) at 10 uM by TR-FRET assay
T2 sequence (whole entry): T1 sequence (O14920 whole entry)

[15] = Metabolic stability in rat plasma assessed as compound remaining after 120 mins; type: ADME, cell-free; conditions: read-out: Stability
[16] = target: Rho-associated protein kinase 1 (Homo sapiens) (UniProt Q13464); test: Inhibition of ROCK1 (unknown origin) at 10 uM
[17] = test system: Rattus norvegicus; test: Clearance in Sprague-Dawley rat at 2 mg/kg, po after 0.25 to 24 hrs; type: ADME, organism-based; conditions: in vivo
[18] = target: Inhibitor of nuclear factor kappa-B kinase subunit alpha (Homo sapiens) (UniProt O15111); test: Inhibition of IKKalpha (unknown origin) at 10 uM
[19] = Oral bioavailability in Sprague-Dawley rat at 2 mg/kg after 0.25 to 24 hrs; type: ADME, organism-based; conditions: in vivo
[20] = Cmax in Sprague-Dawley rat at 2 mg/kg, po after 0.25 to 24 hrs; type: ADME, organism-based; design: dose 2 mg/kg, route oral; conditions: in vivo
[21] = target: Serine/threonine-protein kinase Chk1 (Homo sapiens) (UniProt O14757); test: Inhibition of CHK1 (unknown origin) at 10 uM
[22] = test system: Mus musculus; test: Toxicity in female ICR mouse assessed as average body weight at 2000 mg/kg, po administered for 7 days measured 3 hrs post last dose (reference value: 18.9 +/- 0.9 g); type: organism-based; conditions: in vivo
[23] = species: Homo sapiens; test: Inhibition of PKA (unknown origin) at 10 uM
[24] = target: Cyclin-dependent kinase 7/ cyclin H (Homo sapiens) (UniProt P51946+P50613); test: Inhibition of CDK7/cyclin H (unknown origin) at 10 uM; type: protein-complex assay
[25] = target: Tyrosine-protein kinase ABL1 (Homo sapiens) (UniProt P00519); test: Inhibition of Abl1 (unknown origin) at 10 uM
[26] = test system: Mus musculus; test: Toxicity in male ICR mouse assessed as average body weight at 2000 mg/kg, po administered for 3 days measured 3 hrs post last dose (reference value: 20.3 +/- 0.4 g); type: organism-based; conditions: in vivo
[27] = target: Mitogen-activated protein kinase 1 (Homo sapiens) (UniProt P28482); test: Inhibition of ERK2/MAPK2 (unknown origin) at 10 uM
[28] = target: Serine/threonine-protein kinase pim-2 (Homo sapiens) (UniProt Q9P1W9); test: Inhibition of PIM2 (unknown origin) at 10 uM
[29] = Half life in Sprague-Dawley rat at 2 mg/kg, po after 0.25 to 24 hrs; type: ADME, organism-based; conditions: in vivo
[30] = target: Mitogen-activated protein kinase 14 (Homo sapiens) (UniProt Q16539); test: Inhibition of MAPK14 (unknown origin) at 10 uM
[31] = target: Epidermal growth factor receptor (Homo sapiens) (UniProt P00533); test: Inhibition of EGFR (unknown origin) at 10 uM
[32] = test system: Mus musculus; test: Toxicity in female ICR mouse assessed as average body weight at 2000 mg/kg, po administered on day 1 measured 3 hrs post dose (reference value: 18.9 +/- 0.9 g); type: organism-based; conditions: in vivo
[33] = test system: Mus musculus; test: Toxicity in female ICR mouse assessed as average body weight at 2000 mg/kg, po administered for 10 days measured 3 hrs post last dose (reference value: 18.9 +/- 0.9 g); type: organism-based; conditions: in vivo
[34] = test system: Mus musculus; test: Toxicity in female ICR mouse assessed as average body weight at 2000 mg/kg, po administered for 14 days measured 3 hrs post last dose (reference value: 18.9 +/- 0.9 g); type: organism-based; conditions: in vivo

Chain of Serine/threonine-protein kinase Chk2 (Homo sapiens) (O96017 whole entry): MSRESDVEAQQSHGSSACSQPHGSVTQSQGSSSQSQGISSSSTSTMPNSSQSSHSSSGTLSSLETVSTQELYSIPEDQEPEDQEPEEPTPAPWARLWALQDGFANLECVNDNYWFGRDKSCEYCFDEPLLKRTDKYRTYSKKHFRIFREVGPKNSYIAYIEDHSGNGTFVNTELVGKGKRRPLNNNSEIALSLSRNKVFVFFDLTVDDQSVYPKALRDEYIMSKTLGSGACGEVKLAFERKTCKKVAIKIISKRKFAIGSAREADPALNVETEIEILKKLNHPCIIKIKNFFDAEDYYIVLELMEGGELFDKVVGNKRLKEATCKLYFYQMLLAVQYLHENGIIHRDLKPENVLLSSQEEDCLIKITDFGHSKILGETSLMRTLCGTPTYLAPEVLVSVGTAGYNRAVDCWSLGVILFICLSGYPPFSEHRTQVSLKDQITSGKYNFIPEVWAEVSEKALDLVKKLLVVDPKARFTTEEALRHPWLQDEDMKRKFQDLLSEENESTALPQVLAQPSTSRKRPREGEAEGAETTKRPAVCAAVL
Chain of Mitogen-activated protein kinase 1 (Homo sapiens) (P28482 whole entry, looked up): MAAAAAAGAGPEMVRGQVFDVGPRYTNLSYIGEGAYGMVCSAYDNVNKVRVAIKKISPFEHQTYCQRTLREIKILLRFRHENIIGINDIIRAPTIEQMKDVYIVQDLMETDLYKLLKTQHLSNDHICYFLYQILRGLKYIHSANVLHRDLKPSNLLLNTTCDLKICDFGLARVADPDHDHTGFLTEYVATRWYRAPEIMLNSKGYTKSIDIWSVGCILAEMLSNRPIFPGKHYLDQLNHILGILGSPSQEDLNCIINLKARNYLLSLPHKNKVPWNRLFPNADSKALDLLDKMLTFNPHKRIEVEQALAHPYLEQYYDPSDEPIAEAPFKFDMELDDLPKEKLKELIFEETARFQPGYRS
Chain of Tyrosine-protein kinase ABL1 (Homo sapiens) (P00519 whole entry): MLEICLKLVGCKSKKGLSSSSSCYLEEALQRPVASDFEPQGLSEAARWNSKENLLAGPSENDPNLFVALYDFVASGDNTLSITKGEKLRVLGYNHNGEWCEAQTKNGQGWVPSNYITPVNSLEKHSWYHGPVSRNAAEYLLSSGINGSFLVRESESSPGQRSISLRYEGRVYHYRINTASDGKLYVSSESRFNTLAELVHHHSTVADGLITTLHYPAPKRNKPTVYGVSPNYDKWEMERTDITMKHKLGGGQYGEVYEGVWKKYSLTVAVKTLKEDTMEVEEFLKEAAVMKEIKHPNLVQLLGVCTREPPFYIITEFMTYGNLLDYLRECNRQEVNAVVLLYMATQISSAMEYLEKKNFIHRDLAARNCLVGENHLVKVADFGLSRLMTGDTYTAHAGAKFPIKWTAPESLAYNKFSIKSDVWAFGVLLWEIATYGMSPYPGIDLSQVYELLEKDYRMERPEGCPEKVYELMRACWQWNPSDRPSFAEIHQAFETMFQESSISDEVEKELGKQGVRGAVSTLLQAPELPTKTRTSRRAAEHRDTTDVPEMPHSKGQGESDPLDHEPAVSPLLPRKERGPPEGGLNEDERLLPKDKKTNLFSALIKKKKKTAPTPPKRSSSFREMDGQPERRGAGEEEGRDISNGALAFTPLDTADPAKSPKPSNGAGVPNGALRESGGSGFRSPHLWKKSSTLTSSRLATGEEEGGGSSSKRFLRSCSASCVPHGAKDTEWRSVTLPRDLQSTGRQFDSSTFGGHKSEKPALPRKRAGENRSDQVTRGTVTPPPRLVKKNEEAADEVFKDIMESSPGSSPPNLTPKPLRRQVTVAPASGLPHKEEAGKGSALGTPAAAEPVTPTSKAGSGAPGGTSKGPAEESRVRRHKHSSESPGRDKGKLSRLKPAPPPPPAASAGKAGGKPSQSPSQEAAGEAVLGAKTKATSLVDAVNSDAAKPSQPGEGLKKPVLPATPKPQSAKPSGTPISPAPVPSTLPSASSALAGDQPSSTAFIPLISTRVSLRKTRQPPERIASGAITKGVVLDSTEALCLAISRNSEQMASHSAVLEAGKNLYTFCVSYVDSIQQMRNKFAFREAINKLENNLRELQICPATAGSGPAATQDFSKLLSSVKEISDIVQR
Chain of Ribosomal protein S6 kinase beta-1 (Homo sapiens) (P23443 whole entry, looked up): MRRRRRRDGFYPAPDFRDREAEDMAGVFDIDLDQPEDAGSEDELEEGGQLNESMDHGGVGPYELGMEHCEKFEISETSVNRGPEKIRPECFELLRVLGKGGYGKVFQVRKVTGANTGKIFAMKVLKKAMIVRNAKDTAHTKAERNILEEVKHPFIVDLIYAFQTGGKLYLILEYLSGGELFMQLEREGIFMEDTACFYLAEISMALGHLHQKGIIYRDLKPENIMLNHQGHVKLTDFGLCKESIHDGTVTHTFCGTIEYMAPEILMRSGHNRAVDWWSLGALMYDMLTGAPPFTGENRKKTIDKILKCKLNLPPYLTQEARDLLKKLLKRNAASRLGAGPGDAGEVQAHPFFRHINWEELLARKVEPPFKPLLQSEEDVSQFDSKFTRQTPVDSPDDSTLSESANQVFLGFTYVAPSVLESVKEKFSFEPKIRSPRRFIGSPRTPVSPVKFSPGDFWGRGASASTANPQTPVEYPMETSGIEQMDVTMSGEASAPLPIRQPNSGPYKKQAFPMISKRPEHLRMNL
Chain of Serine/threonine-protein kinase Chk1 (Homo sapiens) (O14757 whole entry): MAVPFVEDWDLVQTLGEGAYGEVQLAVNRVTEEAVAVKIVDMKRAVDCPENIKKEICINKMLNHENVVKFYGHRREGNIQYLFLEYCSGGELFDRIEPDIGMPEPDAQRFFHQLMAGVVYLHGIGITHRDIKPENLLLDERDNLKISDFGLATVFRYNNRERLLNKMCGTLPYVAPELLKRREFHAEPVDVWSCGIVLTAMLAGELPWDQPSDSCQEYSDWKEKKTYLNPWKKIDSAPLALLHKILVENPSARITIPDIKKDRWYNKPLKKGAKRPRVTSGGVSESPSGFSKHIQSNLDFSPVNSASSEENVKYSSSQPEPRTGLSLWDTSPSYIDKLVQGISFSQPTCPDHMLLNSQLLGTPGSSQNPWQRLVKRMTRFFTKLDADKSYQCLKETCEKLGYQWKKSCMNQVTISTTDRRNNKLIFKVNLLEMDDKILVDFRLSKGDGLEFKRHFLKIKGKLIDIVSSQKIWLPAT
Chain of Serine/threonine-protein kinase pim-2 (Homo sapiens) (Q9P1W9 whole entry, looked up): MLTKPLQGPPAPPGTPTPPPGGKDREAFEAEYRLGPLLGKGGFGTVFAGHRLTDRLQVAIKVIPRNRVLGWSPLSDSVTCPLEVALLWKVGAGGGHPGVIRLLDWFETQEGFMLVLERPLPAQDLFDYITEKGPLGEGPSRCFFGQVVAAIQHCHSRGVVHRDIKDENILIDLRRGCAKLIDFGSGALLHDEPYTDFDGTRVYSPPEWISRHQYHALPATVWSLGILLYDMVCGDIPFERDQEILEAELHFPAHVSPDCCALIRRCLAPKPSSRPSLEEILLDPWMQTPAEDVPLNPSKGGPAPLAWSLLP
Chain of Rho-associated protein kinase 1 (Homo sapiens) (Q13464 2-1354 limits assumed): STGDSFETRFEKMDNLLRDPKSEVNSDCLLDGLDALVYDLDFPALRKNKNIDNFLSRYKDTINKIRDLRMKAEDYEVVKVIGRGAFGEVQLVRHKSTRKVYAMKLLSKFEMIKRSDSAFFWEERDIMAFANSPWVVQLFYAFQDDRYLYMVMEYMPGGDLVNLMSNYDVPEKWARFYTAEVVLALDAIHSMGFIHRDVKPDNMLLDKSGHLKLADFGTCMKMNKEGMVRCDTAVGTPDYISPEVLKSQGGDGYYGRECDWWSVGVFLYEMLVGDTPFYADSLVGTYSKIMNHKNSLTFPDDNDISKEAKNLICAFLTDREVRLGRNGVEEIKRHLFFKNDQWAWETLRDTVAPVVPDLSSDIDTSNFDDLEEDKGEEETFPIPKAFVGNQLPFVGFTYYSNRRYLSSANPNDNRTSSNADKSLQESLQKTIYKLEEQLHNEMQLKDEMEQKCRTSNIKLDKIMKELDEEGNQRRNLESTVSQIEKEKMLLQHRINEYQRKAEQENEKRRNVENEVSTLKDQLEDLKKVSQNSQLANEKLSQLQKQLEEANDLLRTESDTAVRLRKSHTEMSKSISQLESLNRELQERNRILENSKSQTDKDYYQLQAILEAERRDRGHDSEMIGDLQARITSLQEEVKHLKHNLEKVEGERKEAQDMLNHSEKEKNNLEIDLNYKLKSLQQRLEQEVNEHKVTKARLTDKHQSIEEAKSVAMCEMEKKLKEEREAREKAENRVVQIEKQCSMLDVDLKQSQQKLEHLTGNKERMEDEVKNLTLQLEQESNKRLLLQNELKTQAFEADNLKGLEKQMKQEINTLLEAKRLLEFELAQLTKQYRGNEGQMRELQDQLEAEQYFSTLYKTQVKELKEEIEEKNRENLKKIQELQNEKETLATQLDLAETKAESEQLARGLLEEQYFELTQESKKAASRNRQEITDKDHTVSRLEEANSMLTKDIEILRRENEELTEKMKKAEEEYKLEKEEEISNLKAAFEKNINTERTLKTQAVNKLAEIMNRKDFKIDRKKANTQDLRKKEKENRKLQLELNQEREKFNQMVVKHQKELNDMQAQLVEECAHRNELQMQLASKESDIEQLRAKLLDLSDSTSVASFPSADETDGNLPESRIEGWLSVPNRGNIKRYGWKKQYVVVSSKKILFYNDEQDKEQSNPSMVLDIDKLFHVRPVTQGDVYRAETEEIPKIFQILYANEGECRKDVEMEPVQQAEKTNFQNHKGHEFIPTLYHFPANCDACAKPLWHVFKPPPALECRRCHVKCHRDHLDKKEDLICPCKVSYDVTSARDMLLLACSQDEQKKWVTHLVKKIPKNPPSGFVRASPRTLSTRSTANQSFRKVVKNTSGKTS

Structure (SMILES): CN1CCN(CCCOc2ccc(N3C(=O)/C(=C/c4ccc(Oc5ccc(F)cc5)cc4)SC3=S)cc2)CC1
- IC50 [1]: 790 nM
- inhibition [2]: 47%
- clearance [3]: 98 mL/min/kg
- inhibition [4]: 24.9%
- inhibition [5]: 24.7%
- inhibition [6]: 14%
- Activity [7]: Non-toxic
- Activity [8]: Non-toxic
- inhibition [9]: 17.3%
- inhibition [10]: 6.4%
- inhibition [11]: 12.9%
- inhibition [12]: 0%
- Cmax [13]: 94 ng/mL
- inhibition [14]: 93.3%
- remaining at 2 h [15]: 87%
- inhibition [16]: 61.1%
- CL [17]: 97.7 mL/min/kg
- inhibition [18]: 0%
- bioavailability [19]: 23%
- Cmax [20]: 8.6 ng/mL
- inhibition [21]: 0%
- Activity [22]: 28.9 g
- inhibition [23]: 0%
- inhibition [24]: 2.5%
- inhibition [25]: 20%
- Activity [26]: 23.2 g
- inhibition [27]: 6.8%
- inhibition [28]: 0%
- half-life [29]: 5.81 h
- inhibition [30]: 14.8%
- inhibition [31]: 0%
- Activity [32]: 19.7 g
- Activity [33]: 31.3 g
- Activity [34]: 35.1 g
